The assay concerns D1-MSNs in the NAc core. The assay is described as follows: AMPA/NMDA ratio on D1-MSNs after in vivo treatment. Also noted: species or system mouse. The method, then: Repeated non-contingent administration of cocaine results in lower AMPA/NMDA ratios of excitatory inputs onto the NAc specifically on the D1-MSN subtype (Kim et al., 2011; Pascoli et al., 2012). To test whether the decrease in AMPA/NMDA ratios after repeated drug administration is due to the increase in TNFα expression, the AMPA/NMDA ratio was evaluated on D1 and D2 MSNs in the NAc core following cocaine or saline administration in WT and TNFα^−/− mice. […] This is consistent with the exocytosis of AMPARs observed with direct stimulation of D1Rs on MSNs (Mangiavacchi and Wolf, 2004). […] To test the hypothesis that potentiated D1-MSNs are more sensitive to TNFα, TNFα mice were treated with a single injection of cocaine and the effect of a low level of TNFα (10 ng/ml) on AMPA/NMDA ratios was evaluated. […] This treatment had no effect on D2-MSNs (FIG. 9B). To test whether cocaine-induced TNFα signaling would occlude further TNFα synaptic depression, wildtype animals were treated with cocaine for 5 days, and then treated striatel slices ex-vivo with TNFα (100 ng/ml). The AMPA/NMDA ratio on D1-MSNs (already reduced compared to saline treated animals; FIG. 5E) was not further reduced by treatment with TNFα (FIG. 5G).
Because depotentiation of MSNs reduced cocaine-induced behavioural sensitization (Pascoli et al., 2012), it was tested whether re-activation of microglia would depress NAc synapses and suppress sensitization. To do this, monophosphoryl lipid A (MPLA), a detoxified variant of LPS, was used (Casella and Mitchell, 2008). MPLA acts as a weak TLR4 agonist that is at least 100-fold less pyrogenic than LPS (Cluff, 2010) and is used in humans as an adjuvant for several vaccine formulations. […] It was verified that MPLA activates microglia in the striatum, by injecting 10 μg MPLA IP after 10 days withdrawal from cocaine. […] This is consistent with previous observations that MPLA acts as a microglia modulator (Michaud et al., 2013). […] It was next tested if MPLA treatment would depress synaptic strength in the NAc core. After 10 days of withdrawal, animals were injected with MPLA and evaluated 24 hours later for AMPA/NMDA ratios on D1-MSNs.
240 μm thick coronal slices containing the nucleus accumbens were prepared from brains of 8-9 week-old mice (with fluorescent D1-MSNs). After a 1 h recovery period, slices were placed in a submersion-type recording chamber and perfused (1.5-2 ml/min) at 30° C. with a bicarbonate-buffered artificial CSF saturated with 95% O2/5% CO2 and containing (in mM): 119 NaCl, 2.5 KCl, 1 NaH2PO4, 1.3 MgCl2, 2.5 CaCl2, 26.2 NaHCO3, 11 glucose, and 0.05 picrotoxin. Whole-cell voltage-clamp recordings from medium spiny neurons in the nucleus accumbens core were obtained under visual control using infrared-differential interference contrast microscopy. Whole-cell electrodes (2-4 MΩ) were filled with internal solution containing the following (in mM): 120 CsMeSO3, 15 CsCl, 8 NaCl, 0.2 EGTA, 10 HEPES, 2 Mg-ATP, 0.3 Na-GTP, 10 tetraethylammonium, and 5 QX-314 [5-N-(2,6-dimethylphenylcarbamoylmethyl)triethylammonium bromide] (308-310 mOsm). pH was adjusted to 7.3 with CsOH. Cells with series resistance above 25 MΩ or a 20% change over time were excluded. Synaptic currents were evoked using stainless-steel bipolar stimulating electrodes placed 100-150 μm rostral to the recorded neurons. EPSCs were acquired with an Axopatch 200B (Molecular Devices), filtered at 2 kHz, and digitized at 10 kHz. Acquisition and analysis was performed using pCLAMP 10.2 (Molecular Devices). To calculate AMPA/NMDA ratios, evoked synaptic responses were collected at −70 mV to measure AMPAR-mediated EPSCs and at +40 mV to measure NMDAR-mediated EPSCs. Typically, 20 responses were averaged to generate an average response. The peak AMPA response was used to calculate the AMPAR component and the amplitude at 40 ms post the AMPAR peak response was used to calculate the slower NMDA component at +40 mV to calculate the AMPA/NMDA ratio.

On to `COC(=O)[C@H]1[C@@H](OC(=O)c2ccccc2)C[C@@H]2CC[C@H]1N2C` [cocaine], for which the “mean AMPA/NMDA ratio, D1” value by setting is: (TNFα−/− mice, 1 day cocaine 15 mg/kg) 4.28±0.35; (TNFα−/− mice, 5 days cocaine 15 mg/kg) 4.97±083; (WT mice, 1 day cocaine 15 mg/kg) 3.38±0.57; (WT mice, 5 days cocaine 15 mg/kg) 2.73±0.35.
monophosphoryl lipid A [MPLA]: the “AMPA/NMDA ratio in D1-MSNs vs saline treated controls” value (MPLA 10 μg, 24 hours after injection, after 10 days withdrawal from cocaine) is given as “significantly reduced”.

The record behind these values is patent publication US10328092B2, “Methods and compositions for treatment of drug addiction” (The Royal Institution for the Advancement of Learning / …, priority 2015, dated 2019).
